Measured values reported in PMC7163397 (Journal of the American Chemical Society, 2017).

Experiments:
bacterial membrane = conditions: bacterium not stated; ref [6b],[13],[15]; cited from earlier work
A. baumannii = assay: DiBAC4 membrane depolarization on A. baumannii; assay type: cell-based, Acinetobacter baumannii; conditions: polymyxin as positive control
E. faecium = assay: DiBAC4 membrane depolarization on E. faecium; assay type: cell-based, Enterococcus faecium; conditions: deoxycholate as positive control

Compound: tridecaptin
- Membrane depolarization in DiBAC4 assay (bacterial membrane): does not depolarize the membrane

Compound: polymyxin
- Membrane depolarization (DiBAC4 fluorescence change) (A. baumannii): rapidly enhanced DiBAC4 fluorescence

Compound: C[C@H](CCC(=O)O)[C@H]1CC[C@H]2[C@@H]3CC[C@@H]4C[C@H](O)CC[C@]4(C)[C@H]3C[C@H](O)[C@]12C [sodium deoxycholate]
- Membrane depolarization (DiBAC4 fluorescence change) (E. faecium): rapidly enhanced DiBAC4 fluorescence
